Key:
Experiment in all cases: Anaerobic cultures, gut bacterial groups by fluorescent in situ hybridisation at 24 hours
Assay type in all cases: cell-based
E. coli = test system: E. coli
Procedure: (§1) In these experiments, anaerobic cultures were tested to evaluate the in vitro utilisation of a novel Lactobacillus reuteri galactooligosaccharide by monitoring the populations of gut bacterial groups at 24 hours using fluorescent in situ hybridisation, and short-chain fatty acid (SCFA). Fructooligosaccharides (FOS), melibiose and raffinose were used as reference carbohydrates.

Total count = test system: Total count
Procedure: as §1

Lactobacilli = test system: Lactobacilli
Procedure: as §1

Bacteroides = test system: Bacteroides
Procedure: as §1

Clostridia = details: for Clostridia count, 24: 24 hours, anaerobic culture, inoculum 7.55; for Clostridia, 24 hr % change: 24 hr vs inoculum
Procedure: as §1

Eubacteria = test system: Eubacteria
Procedure: as §1

Bifidobacteria = test system: Bifidobacteria
Procedure: as §1

Row | SMILES | E. coli count, 24 (E. coli; 24 hours, anaerobic culture, inoculum 8.14) | E. coli, 24 hr % change (E. coli; 24 hr vs inoculum) | Total count, 24 (Total count; 24 hours, anaerobic culture, inoculum 8.84) | Total count, 24 hr % change (Total count; 24 hr vs inoculum) | Lactobacilli count, 24 (Lactobacilli; 24 hours, anaerobic culture, inoculum 7.15) | Lactobacilli, 24 hr % change (Lactobacilli; 24 hr vs inoculum) | Bacteroides count, 24 (Bacteroides; 24 hours, anaerobic culture, inoculum 7.98) | Bacteroides, 24 hr % change (Bacteroides; 24 hr vs inoculum) | Clostridia count, 24 (Clostridia) | Clostridia, 24 hr % change (Clostridia) | Eubacteria count, 24 (Eubacteria; 24 hours, anaerobic culture, inoculum 8.06) | Eubacteria, 24 hr % change (Eubacteria; 24 hr vs inoculum) | Bifidobacteria count, 24 (Bifidobacteria; 24 hours, anaerobic culture, inoculum 6.85) | Bifidobacteria, 24 hr % change (Bifidobacteria; 24 hr vs inoculum)
1 | OC[C@H]1O[C@H](OCC2O[C@@H](O)[C@H](O)[C@@H](O)[C@@H]2O)[C@H](O)[C@@H](O)[C@H]1O (stereo partly shown) [Melibiose, melibiose] | 7.66 | 94% | 9.14 | 103% | 7.43 | 104% | 7.9 | 99% | 7.65 | 101% | 7.84 | 97% | 7.33 | 107%
2 | OC[C@H]1O[C@H](OC[C@H]2O[C@H](O[C@]3(CO)O[C@H](CO)[C@@H](O)[C@@H]3O)[C@H](O)[C@@H](O)[C@@H]2O)[C@H](O)[C@@H](O)[C@H]1O [Raffinose, raffinose] |  |  |  |  |  |  |  |  | 7.81 | 103% |  |  |  | 

Reference: US11173170B2, “Prebiotic composition and its methods of production” (Optibiotix Limited, priority 2014, dated 2021)
